In article PMC5843753, “Comparative analysis of plant isochorismate synthases reveals structural mechanisms underlying their distinct biochemical properties” (Bioscience Reports, 2018) one finds SA level and ICS activity data, which are given here for one compound.

The target of one assay is NbICS (Nicotiana benthamiana, UniProt A0A286T8R2). Put plainly: in planta SA accumulation with co-expressed IPL. The format is cell-based. The note with it: endogenous chorismate, N. benthamiana leaves, ICS to IPL 1:19.
In a further assay the target is T1, OsICS (Oryza sativa, UniProt A0A286T796).
T1 construct: own transit peptide replaced by that of AtICS1 or of tobacco Rubisco small subunit; N. benthamiana leaves, P. fluorescens IPL PmsB as coupling enzyme
T1 sequence (A0A286T796 46-581): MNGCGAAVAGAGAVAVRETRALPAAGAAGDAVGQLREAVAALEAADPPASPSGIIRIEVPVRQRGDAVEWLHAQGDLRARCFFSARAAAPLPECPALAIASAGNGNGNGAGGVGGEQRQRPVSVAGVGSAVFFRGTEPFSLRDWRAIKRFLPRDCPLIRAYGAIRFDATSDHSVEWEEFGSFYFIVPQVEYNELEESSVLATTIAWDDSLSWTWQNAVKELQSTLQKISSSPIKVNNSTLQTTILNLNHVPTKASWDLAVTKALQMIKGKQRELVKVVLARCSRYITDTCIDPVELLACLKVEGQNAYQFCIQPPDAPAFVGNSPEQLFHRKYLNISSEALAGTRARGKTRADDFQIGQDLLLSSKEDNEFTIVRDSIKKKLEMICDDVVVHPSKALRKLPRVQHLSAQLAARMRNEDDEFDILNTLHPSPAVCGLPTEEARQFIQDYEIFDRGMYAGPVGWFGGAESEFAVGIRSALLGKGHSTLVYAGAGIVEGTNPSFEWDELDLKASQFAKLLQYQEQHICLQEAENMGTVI
Put plainly: in planta SA accumulation with co-expressed IPL. The format is cell-based. To be noted: endogenous chorismate, N. benthamiana leaves, transit peptide replaced.

The next assay concerns the target T2, NtICS (Nicotiana tabacum, UniProt A0A286T848).
T2 sequence (A0A286T848 48-584): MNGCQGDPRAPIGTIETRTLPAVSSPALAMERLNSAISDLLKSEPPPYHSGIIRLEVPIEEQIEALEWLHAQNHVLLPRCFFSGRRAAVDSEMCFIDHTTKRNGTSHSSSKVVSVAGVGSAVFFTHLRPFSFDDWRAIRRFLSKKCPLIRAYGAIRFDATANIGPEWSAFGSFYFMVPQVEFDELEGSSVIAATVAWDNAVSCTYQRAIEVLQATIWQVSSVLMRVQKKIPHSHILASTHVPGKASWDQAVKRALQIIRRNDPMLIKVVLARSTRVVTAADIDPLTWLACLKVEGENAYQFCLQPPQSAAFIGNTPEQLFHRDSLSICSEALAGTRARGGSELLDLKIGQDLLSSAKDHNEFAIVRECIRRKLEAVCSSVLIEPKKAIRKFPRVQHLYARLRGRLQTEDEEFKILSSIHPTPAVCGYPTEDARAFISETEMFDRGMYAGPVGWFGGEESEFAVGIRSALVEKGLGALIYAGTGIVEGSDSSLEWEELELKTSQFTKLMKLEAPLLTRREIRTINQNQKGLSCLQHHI
Put plainly: in planta SA accumulation with co-expressed IPL. Type of assay: cell-based. The note with it: endogenous chorismate, N. benthamiana leaves, ICS to IPL 1:19.

A further assay addresses T3, EntC (Escherichia coli, UniProt P0AEJ2).
T3 construct: N-terminal His6 (pET28a), E. coli SHuffle T7, crude desalted protein fraction; also with tobacco Rubisco small subunit transit peptide and 3xFLAG in N. benthamiana
T3 sequence (P0AEJ2 1-391): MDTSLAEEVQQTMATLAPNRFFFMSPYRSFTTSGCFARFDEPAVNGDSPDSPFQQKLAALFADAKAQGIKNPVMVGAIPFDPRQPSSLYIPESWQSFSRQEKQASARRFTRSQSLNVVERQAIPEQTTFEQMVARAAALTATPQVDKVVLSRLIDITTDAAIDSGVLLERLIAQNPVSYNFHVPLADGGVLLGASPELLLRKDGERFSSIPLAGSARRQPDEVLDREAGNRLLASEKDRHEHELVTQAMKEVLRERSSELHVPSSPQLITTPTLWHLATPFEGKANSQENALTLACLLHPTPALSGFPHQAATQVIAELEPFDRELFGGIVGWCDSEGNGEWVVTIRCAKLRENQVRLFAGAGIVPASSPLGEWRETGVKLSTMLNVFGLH
Put plainly: isochorismate converted into SA, SA measured. Type of assay: biochemical. To be noted: 1 mM barium chorismate, 10 mM MgCl2, pH 7.5, 30 C, 1 h; crude E. coli fraction; linearity not confirmed for EntC in E. coli.

The target of assay [1] is T4, AtICS1 (Arabidopsis thaliana, UniProt Q9S7H8).
T4 construct: gene ICS1; putative chloroplast transit peptide removed, N-terminal His6 (pET28a), E. coli SHuffle T7, crude desalted protein fraction; also C-terminal 3xFLAG in N. benthamiana leaves
In words: isochorismate converted into SA, SA measured. Type of assay: biochemical. To be noted: 1 mM barium chorismate, 10 mM MgCl2, pH 7.5, 30 C, 1 h; crude E. coli fraction.

Assay [2] deals with T5, AtICS1 (Arabidopsis thaliana, UniProt Q9S7H8, T531A).
T5 construct: gene ICS1; putative chloroplast transit peptide removed, N-terminal His6 (pET28a), E. coli SHuffle T7, crude desalted protein fraction; also C-terminal 3xFLAG in N. benthamiana leaves
In words: isochorismate converted into SA, SA measured. The format is biochemical. The note with it: 1 mM barium chorismate, 10 mM MgCl2, pH 7.5, 30 C, 1 h; crude E. coli fraction.

T5 sequence (Q9S7H8 46-569 T531A): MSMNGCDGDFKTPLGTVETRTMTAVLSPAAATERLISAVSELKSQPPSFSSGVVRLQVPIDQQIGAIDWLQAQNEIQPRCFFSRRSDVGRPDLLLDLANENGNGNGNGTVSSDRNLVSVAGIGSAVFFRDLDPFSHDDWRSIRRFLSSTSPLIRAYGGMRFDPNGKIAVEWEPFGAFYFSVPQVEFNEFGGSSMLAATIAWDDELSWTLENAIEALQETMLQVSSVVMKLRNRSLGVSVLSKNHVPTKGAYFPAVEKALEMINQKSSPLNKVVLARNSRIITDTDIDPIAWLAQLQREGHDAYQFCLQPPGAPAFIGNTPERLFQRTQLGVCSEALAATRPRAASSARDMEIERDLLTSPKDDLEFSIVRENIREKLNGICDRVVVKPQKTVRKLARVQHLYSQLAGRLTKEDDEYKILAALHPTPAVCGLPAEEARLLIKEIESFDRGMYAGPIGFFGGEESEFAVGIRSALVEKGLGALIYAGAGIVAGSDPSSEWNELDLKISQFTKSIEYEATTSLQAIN
T4 sequence (Q9S7H8 46-569): as the sequence (Q9S7H8 46-569 T531A) above, with A486T counted along it
Chain of NbICS (A0A286T8R2 53-590): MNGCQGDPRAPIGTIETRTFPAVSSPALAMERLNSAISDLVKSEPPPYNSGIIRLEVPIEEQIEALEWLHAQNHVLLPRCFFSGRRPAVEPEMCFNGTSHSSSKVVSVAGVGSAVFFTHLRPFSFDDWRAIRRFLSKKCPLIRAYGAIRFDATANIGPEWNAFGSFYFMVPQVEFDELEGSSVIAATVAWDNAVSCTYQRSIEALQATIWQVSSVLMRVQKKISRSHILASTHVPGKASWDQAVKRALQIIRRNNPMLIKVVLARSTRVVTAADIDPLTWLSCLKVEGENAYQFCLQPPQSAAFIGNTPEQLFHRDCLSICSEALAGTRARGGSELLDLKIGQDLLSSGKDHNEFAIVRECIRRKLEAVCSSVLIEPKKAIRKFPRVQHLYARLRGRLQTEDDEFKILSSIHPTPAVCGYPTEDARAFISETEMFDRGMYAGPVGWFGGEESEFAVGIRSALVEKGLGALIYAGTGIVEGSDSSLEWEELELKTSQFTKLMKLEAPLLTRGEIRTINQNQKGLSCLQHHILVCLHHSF

As to `C=C(O[C@@H]1C=C(C(=O)O)C=C[C@H]1O)C(=O)O` [chorismate], the SA level entry is listed as “expression of NtICS or NbICS with IPL resulted in significant increases in the levels of SA” at NbICS, “OsICS with TP^AtICS1 or TP^SS showed low but significant levels of ICS activity in planta” on OsICS and “expression of NtICS or NbICS with IPL resulted in significant increases in the levels of SA” on NtICS. The ICS activity result is “AtICS1 and EntC showed activity that was much higher than the empty vector control” at EntC; “AtICS1 and EntC showed activity that was much higher than the empty vector control” on AtICS1 [1]; “The T531A mutant showed the lowest activity compared with the S537T and I550A mutants” on AtICS1 [2].
